The values that follow come from ChEMBL document CHEMBL5030539, “Potent and Selective Inhibitors of the Epidermal Growth Factor Receptor to Overcome C797S-Mediated Resistance” (J Med Chem, 2021).

A short description of data set [1]: Inhibition of EGFR Ex19del/T790M/C797S triple mutant (unknown origin) incubated for 15 min measured by -CisBio HTRF KinEASE TK. Also on record: species or system Homo sapiens. Background: TR-FRET usually uses a lanthanide donor and a delayed reading to cut background.
For data set [2], the species on record is Homo sapiens. Put plainly: Inhibition of EGFR Ex19del/T790M/C797S triple mutant (unknown origin) assessed as enzyme residence time measured by -biacore direct binding assay. (In general: In SPR one partner is held on a chip, and binding of the other changes the refractive index at the surface.)
Data set [3] deals with Epidermal growth factor receptor (Homo sapiens, UniProt P00533). As to the kind of experiment: Inhibition of Wild type EGFR (unknown origin).
A short description of data set [4]: Inhibition of EGFR Ex19del/T790M/C797S triple mutant (unknown origin) expressed in human NCI-H1975 cells assessed as protein phosphorylation measured after 2 hrs by ELISA. Type of data set: cell-based. The conditions noted are these: NCI-H1975, 2 h. (In general: ELISA stands for enzyme-linked immunosorbent assay.)
Data set [5] is described as follows: Inhibition of wild type EFGR expressed in human LoVo cell line assessed as inhibition of EGF-stimulated EGFR phosphorylation potency measured after 2 hrs by HRTF assay. The data set is classed as functional.
A short description of data set [6]: Aqueous solubility of the compound at pH 7.4. The conditions noted are these: buffer. The data set is classed as physicochemical.
The nature of data set [7]: Plasma protein binding in human plasma assessed as unbound fraction. The data set is classed as ADME, cell-free.
A short description of data set [8]: Lipophilicity, log D of the compound at pH 7.4. Type of data set: physicochemical. To be noted: buffer.
Data set [9] is described as follows: Intrinsic permeability of compound across apical to basolateral side in human Caco-2 cells. To be noted: read-out: permeability. The data set is classed as ADME, cell-based.
The nature of data set [10]: Intrinsic clearance in human liver microsomes. Type of data set: ADME, Microsome. The conditions noted are these: read-out: CLH.
The nature of data set [11]: Intrinsic clearance in rat hepatocyte measured per 10^6 cells. Type of data set: ADME, tissue-based. The conditions noted are these: hepatocytes.
Data set [12] can be described thus: Dissociation constant, pKa of compound. The data set is classed as physicochemical.
A short description of data set [13]: Inhibition of EGFR Exon19Del/C797S double mutant (unknown origin) by biochemical assay. Also on record: species or system Homo sapiens.
Data set [14] can be described thus: Inhibition of EFGR Ex19del (unknown origin) expressed in human PC-9 cells assessed as inhibition of EGF-induced phosphorylation measured after 2 hrs by ELISA. The data set is classed as cell-based. To be noted: PC-9, 2 h.
The nature of data set [15]: Inhibition of EFGR Ex19del/T790M/C797S triple mutant (unknown origin) expressed in human PC-9-VanR cells assessed as inhibition of EGF-induced phosphorylation measured after 2 hrs by ELISA. Type of data set: cell-based. The conditions noted are these: PC-9, 2 h.
Data set [16] relates to NCI-H1975. Put plainly: Antitumour activity against human NCI-H1975 cells harboring EGFR L858R/T790M double mutant xenografted in NSG mouse model assessed as tumour growth inhibition at 50 mg/kg, sc bid for 14 days relative to control. Type of data set: functional. To be noted: 336 h, time 14 day, read-out: TGI.
The nature of data set [17]: Toxicity in mouse NSG assessed as change in body weight at 50 mg/kg, sc bid for 14 to 21 days. The data set is classed as organism-based. The conditions noted are these: in vivo, time 14-21 day.
The test system of data set [18] is PC-9. Put plainly: Antitumour activity against human PC-9-VanR cells harboring EGFR Ex19del/T790M/C797S triple mutant xenografted in NSG mouse model assessed as tumour growth inhibition at 50 mg/kg, sc bid for 21 days. Type of data set: functional. The conditions noted are these: PC-9, sc, 504 h, time 21 day, read-out: TGI.
Data set [19] concerns PC-9. Put plainly: In vivo inhibition of EGFR in human PC-9-VanR cells harboring EGFR Ex19del/T790M/C797S triple mutant xenografted in NSG mouse model assessed as inhibition of EGFR phosphorylation in tumor at 50 mg/kg, sc bid for 21 days by immunoblot analysis. The data set is classed as functional, organism-based. The conditions noted are these: time 21.0 day.
Data set [20] has as its system PC-9. As to the kind of experiment: In vivo inhibition of EGFR in human PC-9-VanR cells harboring EGFR Ex19del/T790M/C797S triple mutant xenografted in NSG mouse model assessed as inhibition of ERK phosphorylation in tumor at 50 mg/kg, sc bid for 21 days by immunoblot analysis. The conditions noted are these: time 21.0 day. The data set is classed as functional, organism-based.

In data set [21] the test system is PC-9. As to the kind of experiment: In vivo inhibition of EGFR in human PC-9-VanR cells harboring EGFR Ex19del/T790M/C797S triple mutant xenografted in NSG mouse model assessed as inhibition of Akt phosphorylation in tumor at 50 mg/kg, sc bid for 21 days by immunoblot analysis. The data set is classed as functional, organism-based. The conditions noted are these: time 21.0 day.

Data set [22] deals with PC-9. Put plainly: In vivo inhibition of EGFR in human PC-9-VanR cells harboring EGFR Ex19del/T790M/C797S triple mutant xenografted in NSG mouse model assessed as inhibition of S6 phosphorylation in tumor at 50 mg/kg, sc bid for 21 days by immunoblot analysis. Type of data set: functional, organism-based. The conditions noted are these: time 21.0 day.
In data set [23] the target is Epidermal growth factor receptor (Homo sapiens, UniProt P00533, L858R/T790M).

Structures are written as SMILES. ≈ marks a conversion by molar mass, not a printed value. Calls of active or inactive are those of the source. The calls are words filed in the database; no cut-off is given here.

Sequence of Epidermal growth factor receptor (Homo sapiens, UniProt P00533) (P00533 whole entry): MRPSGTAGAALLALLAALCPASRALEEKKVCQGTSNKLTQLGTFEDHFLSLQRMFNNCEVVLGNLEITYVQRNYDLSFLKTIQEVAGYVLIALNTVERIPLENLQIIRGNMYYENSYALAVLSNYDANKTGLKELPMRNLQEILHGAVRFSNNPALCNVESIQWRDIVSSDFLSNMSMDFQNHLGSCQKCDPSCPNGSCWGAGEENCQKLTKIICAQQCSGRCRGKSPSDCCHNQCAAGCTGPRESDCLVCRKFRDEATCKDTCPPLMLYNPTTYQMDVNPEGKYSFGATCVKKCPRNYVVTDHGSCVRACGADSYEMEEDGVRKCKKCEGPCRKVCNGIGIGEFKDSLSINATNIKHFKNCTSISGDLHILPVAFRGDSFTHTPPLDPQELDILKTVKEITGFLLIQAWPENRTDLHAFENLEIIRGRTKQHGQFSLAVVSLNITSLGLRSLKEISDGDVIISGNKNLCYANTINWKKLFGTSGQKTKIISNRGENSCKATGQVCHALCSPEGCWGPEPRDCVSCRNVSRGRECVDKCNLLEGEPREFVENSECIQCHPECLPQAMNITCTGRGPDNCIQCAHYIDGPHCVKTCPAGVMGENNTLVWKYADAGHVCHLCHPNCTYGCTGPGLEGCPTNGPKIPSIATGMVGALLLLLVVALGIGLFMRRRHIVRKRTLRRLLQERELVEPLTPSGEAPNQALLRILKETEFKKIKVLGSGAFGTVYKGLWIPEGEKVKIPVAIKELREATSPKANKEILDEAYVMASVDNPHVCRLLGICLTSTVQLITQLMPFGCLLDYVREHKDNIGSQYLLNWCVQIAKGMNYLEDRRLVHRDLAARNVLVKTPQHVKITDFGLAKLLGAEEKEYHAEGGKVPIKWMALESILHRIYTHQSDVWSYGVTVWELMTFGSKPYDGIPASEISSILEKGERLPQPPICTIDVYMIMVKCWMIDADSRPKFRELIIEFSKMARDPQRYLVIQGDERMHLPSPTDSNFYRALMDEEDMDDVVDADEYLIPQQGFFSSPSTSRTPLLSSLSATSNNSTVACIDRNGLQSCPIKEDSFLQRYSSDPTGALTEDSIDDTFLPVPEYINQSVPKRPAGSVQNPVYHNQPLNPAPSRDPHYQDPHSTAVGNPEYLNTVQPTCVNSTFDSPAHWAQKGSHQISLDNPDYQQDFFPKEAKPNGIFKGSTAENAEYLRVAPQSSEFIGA
Sequence of Epidermal growth factor receptor (Homo sapiens, UniProt P00533, L858R/T790M) (P00533 25-1210 T790M/L858R limits assumed): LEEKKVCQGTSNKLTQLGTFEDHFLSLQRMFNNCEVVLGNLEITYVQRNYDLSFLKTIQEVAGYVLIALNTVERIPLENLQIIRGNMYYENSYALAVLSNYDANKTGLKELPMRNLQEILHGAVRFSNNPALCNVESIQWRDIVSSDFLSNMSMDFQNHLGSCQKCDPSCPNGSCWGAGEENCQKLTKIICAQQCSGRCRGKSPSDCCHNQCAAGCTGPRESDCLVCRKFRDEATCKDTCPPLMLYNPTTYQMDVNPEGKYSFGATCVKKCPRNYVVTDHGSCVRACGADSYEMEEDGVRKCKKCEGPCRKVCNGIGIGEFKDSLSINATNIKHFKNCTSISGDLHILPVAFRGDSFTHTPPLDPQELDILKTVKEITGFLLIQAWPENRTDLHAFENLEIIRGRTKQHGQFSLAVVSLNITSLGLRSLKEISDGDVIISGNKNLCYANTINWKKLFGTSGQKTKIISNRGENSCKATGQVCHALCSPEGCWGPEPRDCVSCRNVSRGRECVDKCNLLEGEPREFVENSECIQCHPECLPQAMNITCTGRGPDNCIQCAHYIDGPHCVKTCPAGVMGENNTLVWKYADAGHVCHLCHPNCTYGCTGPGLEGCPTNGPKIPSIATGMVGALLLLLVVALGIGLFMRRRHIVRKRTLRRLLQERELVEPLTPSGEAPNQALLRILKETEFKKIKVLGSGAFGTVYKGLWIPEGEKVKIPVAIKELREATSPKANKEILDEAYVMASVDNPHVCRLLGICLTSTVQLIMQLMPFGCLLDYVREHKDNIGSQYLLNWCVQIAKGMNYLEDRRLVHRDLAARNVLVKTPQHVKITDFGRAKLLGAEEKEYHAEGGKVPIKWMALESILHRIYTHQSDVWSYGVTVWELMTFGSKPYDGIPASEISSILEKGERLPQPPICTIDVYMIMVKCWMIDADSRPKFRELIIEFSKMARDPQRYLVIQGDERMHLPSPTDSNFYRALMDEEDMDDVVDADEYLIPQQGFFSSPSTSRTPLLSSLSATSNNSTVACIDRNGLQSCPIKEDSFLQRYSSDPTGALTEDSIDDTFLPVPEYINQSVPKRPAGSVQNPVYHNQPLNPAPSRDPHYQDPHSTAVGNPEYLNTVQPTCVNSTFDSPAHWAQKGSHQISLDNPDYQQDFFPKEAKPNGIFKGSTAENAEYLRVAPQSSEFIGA

Usually IC50 stands for the concentration needed to halve the response being measured. Usually solubility stands for the dissolved amount per volume that the medium holds. A low value points to little dissolved substance. By logD is commonly meant the decadic logarithm of the distribution of all forms, ionised or not, between an organic phase and buffer at a given pH. The low end stands for lower lipophilicity, the high end for higher lipophilicity. Broadly, the pKa is the pH at which an ionisable group is half protonated. Turning to `COc1cc(N2CCN(C)CC2)c(-c2cnn(C)c2)cc1Nc1ncc(Cl)c(Nc2ccccc2P(C)(C)=O)n1`, the IC50 in data set [1] is 0.23 nM; in data set [3] it was 3.3 nM; in data set [4], 241 nM; in [5], 79 nM. In addition, the TIME in [2] stood at 2.65 h. Moreover, in [6], the solubility was over 1000 µM. In addition, the fraction unbound in data set [7] (read-out: Fu) is 0.243. In addition, the logD in data set [8] is 2.4. Further, in data set [9], the Papp A→B at 10 µM was 2.6 ×10⁻⁶ cm/s. Besides, in data set [10], the microsomal CLint amounted to 24 µL/min/mg. The compound further displayed a CLH in data set [11] of under 1 uL/min/10^6 cells. The pKa in [12] is 7.6.
For `CCP(=O)(CC)c1ccccc1Nc1nc(Nc2cc(-c3cnn(C)c3)c(N3CCOCC3)cc2OC)ncc1Cl`, the IC50 in [1] is 0.2 nM; in [3] it was 2.4 nM; in [4] it was 139 nM. Also, the TIME in data set [2] was determined as 1.83 h. Besides, in [7] (read-out: Fu), the fraction unbound worked out at 0.041. Also, the logD in data set [8] came out at 4. In addition, the Papp A→B at 10 µM in [9] stood at 78 ×10⁻⁶ cm/s. In [10], the microsomal CLint is 71 µL/min/mg. Further, the CLH in data set [11] turned out to be 67 uL/min/10^6 cells.
Consider `C=CC(=O)Nc1cc(Nc2nccc(-c3cn(C)c4ccccc34)n2)c(OC)cc1N(C)CCN(C)C` [OSIMERTINIB], for which it took 44 nM to reach half-maximal inhibition in data set [13] (IC50).
Regarding `COc1cc(N2CCC(N3CCN(C)CC3)CC2)ccc1Nc1ncc(Cl)c(Nc2ccccc2P(C)(C)=O)n1` [BRIGATINIB], the IC50 in [1] was determined as 7 nM; in data set [4] it was 459 nM; in [5], 2030 nM; in data set [13], 132 nM; in [14], 357 nM; in [15] it was 2680 nM. The TIME in [2] is 0.333 h. The same compound had a solubility in data set [6] of over 1190 µM. In [7], the fraction unbound was determined as 0.155. The compound further showed a pH-dependent lipophilicity (logD) in data set [8] of 2.3. In addition, in [9], the Papp A→B at 10 µM was 4.7 ×10⁻⁶ cm/s. For the same compound, in data set [10], the microsomal CLint stood at 3.1 µL/min/mg.
As for `COc1cc(N2CCC(N(C)C)CC2)c(-c2cn[nH]c2)cc1Nc1ncc(Cl)c(Nc2ccccc2P(C)(C)=O)n1`, the IC50 stood at 0.5 nM in [1], 0.9 nM in data set [3], 2010 nM in data set [4] and 373 nM in data set [5]. For the same compound, in data set [2], the TIME is 2.3 h. This compound also returned a solubility in [6] of over 1000 µM. Also, the fraction unbound in [7] (read-out: Fu) is 0.19. Moreover, the logD in [8] came out at 1.8. The Papp A→B at 10 µM in data set [9] was found to be 0.24 ×10⁻⁶ cm/s. Also, in data set [10], the microsomal CLint came out at 23 µL/min/mg. The compound further returned a CLH in data set [11] of under 1 uL/min/10^6 cells.
As for `COc1cc(N2CCOCC2)c(-c2cn[nH]c2)cc1Nc1ncc(Cl)c(Nc2ccccc2P(C)(C)=O)n1`, the TIME in data set [2] came out at 3.97 h. Besides, the figures for the IC50 in data set [4] and in [5] were 1090 nM and 2140 nM, respectively. For the same compound, the solubility in data set [6] is under 3 µM. For the same compound, the fraction unbound in [7] (read-out: Fu) was found to be 0.009. The logD in data set [8] worked out at 3.4. Moreover, the Papp A→B at 10 µM in data set [9] stood at 18 ×10⁻⁶ cm/s. The microsomal CLint in [10] is 28 µL/min/mg.
Regarding `COc1cc(N2CCOCC2)c(-c2cnn(C)c2)cc1Nc1ncc(Cl)c(Nc2ccccc2P(C)(C)=O)n1`, the IC50 in data set [1] was 0.2 nM; in data set [3], 4.4 nM; in data set [4], 122 nM; in data set [5], 1180 nM; in [14] it was 52 nM; in [15], 739 nM. The IC50 in data set [23] came out at 32 nM. Also, the TIME in [2] was determined as 1.37 h. This compound displayed a solubility in data set [6] of 8.7 µM (≈ 4.94 µg/mL). Also, the fraction unbound in data set [7] (read-out: Fu) is 0.07. The same compound gave a logD in [8] of 3. Moreover, the Papp A→B at 10 µM in [9] is 61 ×10⁻⁶ cm/s. In addition, the microsomal CLint in data set [10] is 49 µL/min/mg. The same compound gave a CLH in [11] of 16 uL/min/10^6 cells. Moreover, the figures for the inhibition in vivo at 50 mg/kg in data set [16] and in [18] were 87% and 52%, respectively. The Activity entry in [17] is “Toxic”. The outcome in data set [19], in [20], in data set [21] and in [22] was Active.
Take `COc1cc(N2CCC(N(C)C)CC2)c(-c2cnn(C)c2)cc1Nc1ncc(Cl)c(Nc2ccccc2P(C)(C)=O)n1`: the IC50 in [1] came out at 0.19 nM; in [3] it was 1.7 nM; in [5], 101 nM. Further, the TIME in data set [2] amounted to 1.08 h. Besides, the solubility in [6] was over 1000 µM. Besides, the fraction unbound in [7] (read-out: Fu) turned out to be 0.272. In addition, in data set [8], the logD was 1.9. Further, the Papp A→B at 10 µM in data set [9] was under 0.24 ×10⁻⁶ cm/s. The microsomal CLint in data set [10] was determined as 31 µL/min/mg. Moreover, in data set [11], the CLH is under 1 uL/min/10^6 cells. For the same compound, the pKa in [12] was determined as 9.4.
As for `COc1cc(N2CCC(N3CCN(C)CC3)CC2)c(-c2cn[nH]c2)cc1Nc1ncc(Cl)c(Nc2ccccc2P(C)(C)=O)n1`, the results for the IC50 in data set [1], in data set [4] and in data set [5] were 0.3 nM, 498 nM and 726 nM, respectively. Further, the TIME in data set [2] turned out to be 2.2 h. Also, the solubility in data set [6] was over 1000 µM. Further, the fraction unbound in data set [7] (read-out: Fu) was determined as 0.1. Also, in data set [8], the logD is 2.5. Besides, the microsomal CLint in [10] turned out to be 28 µL/min/mg.
In the case of `COc1cc(N2CCC(N3CCN(C)CC3)CC2)c(-c2cnn(C)c2)cc1Nc1ncc(Cl)c(Nc2ccccc2P(C)(C)=O)n1`, the IC50 is 0.32 nM in data set [1], 0.92 nM in data set [3], 91 nM in [4] and 140 nM in data set [5]. In data set [2], the TIME came out at 2.52 h. Further, in data set [6], the solubility was over 1000 µM. In [7] (read-out: Fu), the fraction unbound was found to be 0.228. The logD in data set [8] came out at 2.7. Further, the Papp A→B at 10 µM in [9] is under 0.62 ×10⁻⁶ cm/s. Further, the microsomal CLint in data set [10] was determined as 21 µL/min/mg. Further, the CLH in data set [11] is under 1 uL/min/10^6 cells.
